From article PMC9616902, “Chemical space docking enables large-scale structure-based virtual screening to discover ROCK1 kinase inhibitors” (Nature Communications, 2022)
Where two headings read alike, the source gives them in different places.

Molecular target: T1, Human ROCK1 protein (amino acids 1–477) (Homo sapiens, UniProt Q13464)
T1 construct: purchased Carna Biosciences 01-109
Assay: ROCK1 HTRF KinEASE-STK S2 biochemical activity assay
Conditions: for S0 / Sinf / nHill: curve fit parameter; for Ki: average +/- standard deviation of three measurements, 3 μM ATP
Experimental: Human ROCK1 protein (amino acids 1–477 from accession number NP_05397.1) was purchased from Carna Biosciences (Cat# 01-109). This sequence contains the catalytic domain of the protein, and the biochemical activity was measured by the HTRF KinEASE-STK S2 Kit (Cisbio, Cat# 62ST2PEB) according to the manufacturer’s protocol. To determine the IC50, compounds were first dispensed by the Echo Liquid Handler (Labcyte) into white 384-well plates (PerkinElmer, Cat# 6008289). A total of 3 μL of 2x ROCK1 enzyme solution was added to the compounds, followed by a 10 min incubation at room temperature. Then, 2x ATP and STK S2 peptide solution were added to initiate the one-hour enzyme reaction at room temperature. The final condition of the reaction was 1.5 nM Rock1, 3 μM ATP, 0.5 μM STK S2 peptide in 50 mM HEPES pH7.2, 10 mM MgCl2, 0.1% BGG, 0.005% Brij-35, 1 mM DTT. The reaction was quenched by adding 6 μL of the detection mixture that contained Streptavidin XL665 and STK Antibody-Cryptate (Cisbio) and incubated for 1 hour at room temperature. The HTRF (665 nm/620 nm) signal was read on the PHERAstar reader (BMG Labtech). All measurements were done in triplicate.

[1] = 2021-01-17 ROCK1 HTRF (n=1) 665/620, no unit printed (values equal the uM IC50 of the 7th table x 1e-6), read-out: qAC50
[2] = 2021-01-17 ROCK1 HTRF (n=1) 665/620 Activity [%]
[3] = 2021-01-18 ROCK1 (n=3) 665/620, no unit printed (values equal the uM IC50 of the 7th table x 1e-6), read-out: qAC50
[4] = 2021-01-18 ROCK1 (n=3) 665/620 Activity [%]
[5] = 2021-01-18 ROCK1 HTRF (n=2) 665/620, no unit printed (values equal the uM IC50 of the 7th table x 1e-6), read-out: qAC50
[6] = 2021-01-18 ROCK1 HTRF (n=2) 665/620 Activity [%]
[7] = Supplementary Figure 4 source data, unit inferred, read-out: hit IC50

T1 sequence (Q13464 1-477): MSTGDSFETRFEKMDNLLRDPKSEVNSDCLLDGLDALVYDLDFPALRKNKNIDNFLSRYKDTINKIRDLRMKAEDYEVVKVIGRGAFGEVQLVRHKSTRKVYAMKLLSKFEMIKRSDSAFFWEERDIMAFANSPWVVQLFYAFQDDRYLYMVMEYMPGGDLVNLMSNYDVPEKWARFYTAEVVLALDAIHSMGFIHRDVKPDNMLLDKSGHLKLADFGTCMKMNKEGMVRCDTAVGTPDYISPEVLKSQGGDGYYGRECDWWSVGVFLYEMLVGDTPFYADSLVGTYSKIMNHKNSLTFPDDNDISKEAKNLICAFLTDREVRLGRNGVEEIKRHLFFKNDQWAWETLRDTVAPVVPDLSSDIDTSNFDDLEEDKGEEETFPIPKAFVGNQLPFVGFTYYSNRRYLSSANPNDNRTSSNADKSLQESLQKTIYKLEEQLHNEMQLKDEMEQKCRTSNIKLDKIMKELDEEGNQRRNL

| SMILES | IC50 [1] [µM] | S0 [2] [%] | Sinf [2] [%] | nHill (2021-01-17 ROCK1 HTRF (n=1)) | IC50 [3] [µM] | S0 [4] [%] | Sinf [4] [%] | nHill (2021-01-18 ROCK1 (n=3)) | IC50 [5] [µM] | S0 [6] [%] | Sinf [6] [%] | nHill (2021-01-18 ROCK1 HTRF (n=2)) | IC50 [7] [µM] | Ki [nM] |
| --- | --- | --- | --- | --- | --- | --- | --- | --- | --- | --- | --- | --- | --- | --- |
| CC(Cc1ccc(F)cc1F)NC(=O)c1ccc(-c2cn[nH]c2)cc1 (racemic) [Compound 3] | 0.22 | 1.865 | -99.1673 | 1.058 | 0.121 | -2.06 | -95.7048 | 1.245 | 0.136 | -2.159 | -97.6218 | 1.01 | 0.159 | 76 ± 26 |
| COCc1cccc(CC(=O)Nc2ccc(-c3cn[nH]c3)cc2)c1 [Compound 1] | 0.0793 | -0.5714 | -100.2 | 1.046 | 0.0806 | -1.802 | -99.1388 | 1.109 | 0.0814 | -5.692 | -99.1049 | 1.139 | 0.08 | 38 ± 1 |
| CSc1cccc(F)c1CNC(=O)c1ccc(-c2cn[nH]c2)cc1 [Compound 5] | 0.173 | 3.131 | -99.2397 | 1.067 | 0.171 | -0.4047 | -100.142 | 0.9507 | 0.17 | 3.5105 | -98.3773 | 1.136 | 0.171 | 82 ± 1 |

Second part, the compound after the results:

| IC50 [1] [µM] | S0 [2] [%] | Sinf [2] [%] | nHill (2021-01-17 ROCK1 HTRF (n=1)) | IC50 [3] [µM] | S0 [4] [%] | Sinf [4] [%] | nHill (2021-01-18 ROCK1 (n=3)) | IC50 [5] [µM] | S0 [6] [%] | Sinf [6] [%] | nHill (2021-01-18 ROCK1 HTRF (n=2)) | IC50 [7] [µM] | Ki [nM] | SMILES |
| --- | --- | --- | --- | --- | --- | --- | --- | --- | --- | --- | --- | --- | --- | --- |
| 0.248 | 0.4458 | -96.8224 | 1.0903 | 0.14 | -2.655 | -93.6754 | 1.532 | 0.157 | 3.31 | -94.0095 | 1.2951 | 0.182 | 87 ± 28 | CC(NC(=O)c1ccc(-c2cn[nH]c2)cc1)C1CC1c1ccccc1 (mixture of isomers) [Compound 6] |
| 0.108 | -2.075 | -98.9577 | 1.042 | 0.101 | 1.158 | -99.9466 | 0.9439 | 0.1 | -0.7898 | -98.8967 | 0.9788 | 0.103 | 49 ± 2 | CC(CNC(=O)c1ccc(-c2cn[nH]c2)cc1)N1CCc2ccccc21 (stereo not drawn) [Compound 2] |
| 0.197 | -5.337 | -98.9033 | 1.05 | 0.147 | -5.138 | -96.0861 | 1.483 | 0.15 | -6.676 | -95.9487 | 1.644 | 0.165 | 79 ± 13 | O=C(NCC1(Cc2ccccc2)CC1)c1ccc(-c2cn[nH]c2)cc1 [Compound 4] |
